Measurements taken from ChEMBL document CHEMBL1201862, “PubChem BioAssay data set” (2004).
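Test compounds were applied to cells in 96-well plates for 48 hours at 5 doses. Abbreviation: GI50, concentration required for 50% inhibition of growth.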 Active and inactive are the calls of the source. No stated cut-off is given here; in the data, active = GI50 up to about 1.1 µM and inactive = higher.

Columns and labels:
Assay in all cases: NCI-60 cell line screen, 48 h
TK-10 = system: TK-10
MOLT-4 = system: MOLT-4
SF-295 = system: SF-295
SN12C = system: SN12C
M14 = system: M14
T47D = system: T47D
MDA-MB-231 = system: MDA-MB-231
UO-31 = system: UO-31
OVCAR-8 = system: OVCAR-8
OVCAR-4 = system: OVCAR-4
SNB-75 = system: SNB-75
NCI-H460 = system: NCI-H460
A549 = system: A549
HT-29 = system: HT-29
HCT-116 = system: HCT-116
OVCAR-5 = system: OVCAR-5
CCRF-CEM = system: CCRF-CEM
SK-OV-3 = system: SK-OV-3
UACC-257 = system: UACC-257
SR = system: SR
RPMI-8226 = system: RPMI-8226
HOP-92 = system: HOP-92
NCI-H23 = system: NCI-H23
SK-MEL-2 = system: SK-MEL-2
MCF7 = system: MCF7
NCI/ADR-RES = system: NCI/ADR-RES
SNB-19 = system: SNB-19
K562 = system: K562
786-0 = system: 786-0
EKVX = system: EKVX
MDA-N = system: MDA-N
HCC 2998 = system: HCC 2998
SW-620 = system: SW-620
NCI-H522 = system: NCI-H522
A498 = system: A498
ACHN = system: ACHN
COLO 205 = system: COLO 205
BT-549 = system: BT-549
LOX IMVI = system: LOX IMVI
SK-MEL-5 = system: SK-MEL-5
SF-539 = system: SF-539
HL-60 = system: HL-60
RXF 393 = system: RXF 393
HOP-62 = system: HOP-62
MDA-MB-435 = system: MDA-MB-435
IGROV-1 = system: IGROV-1
CAKI-1 = system: CAKI-1
PC-3 = system: PC-3
Malme-3M = system: Malme-3M
UACC-62 = system: UACC-62
SK-MEL-28 = system: SK-MEL-28
SF-268 = system: SF-268
U-251 = system: U-251
KM12 = system: KM12
Hs-578T = system: Hs-578T
HCT-15 = system: HCT-15
OVCAR-3 = system: OVCAR-3
NCI-H226 = system: NCI-H226

c1cc(-c2ccsc2-c2ccsc2)cs1 was tested, and the GI50 (TK-10) was > 100 µM (inactive), the GI50 (MOLT-4) was 25.2 µM (inactive) and the GI50 (SF-295) was > 81.1 µM (inactive). The GI50 (SN12C) was > 86.9 µM (inactive), the GI50 (M14) was > 100 µM (inactive) and the GI50 (T47D) was 58.1 µM (inactive). The GI50 (MDA-MB-231) was > 100 µM (inactive), the GI50 (UO-31) was > 90.6 µM (inactive) and the GI50 (OVCAR-8) was > 100 µM (inactive). For the same compound, the GI50 (OVCAR-4) was > 55.3 µM (inactive), the GI50 (SNB-75) was 44.5 µM (inactive) and the GI50 (NCI-H460) was > 100 µM (inactive). For the same compound, the GI50 (A549) was 46.3 µM (inactive), the GI50 (HT-29) was > 100 µM (inactive) and the GI50 (HCT-116) was 52.1 µM (inactive). The GI50 (OVCAR-5) was > 100 µM (inactive), the GI50 (CCRF-CEM) was 50.1 µM (inactive) and the GI50 (SK-OV-3) was > 100 µM (inactive). The GI50 (UACC-257) was > 100 µM (inactive), the GI50 (SR) was 16.3 µM (inactive) and the GI50 (RPMI-8226) was 29.9 µM (inactive). For the same compound, the GI50 (HOP-92) was > 92.3 µM (inactive), the GI50 (NCI-H23) was 46.3 µM (inactive) and the GI50 (SK-MEL-2) was 28.5 µM (inactive). The GI50 (MCF7) was > 60.4 µM (inactive), the GI50 (NCI/ADR-RES) was > 100 µM (inactive) and the GI50 (SNB-19) was > 100 µM (inactive). For the same compound, the GI50 (K562) was > 27.2 µM (inactive), the GI50 (786-0) was > 93.3 µM (inactive) and the GI50 (EKVX) was > 100 µM (inactive). For the same compound, the GI50 (MDA-N) was 41.3 µM (inactive), the GI50 (HCC 2998) was 46.8 µM (inactive) and the GI50 (SW-620) was > 91.8 µM (inactive). For the same compound, the GI50 (NCI-H522) was 26.1 µM (inactive), the GI50 (A498) was > 100 µM (inactive) and the GI50 (ACHN) was > 100 µM (inactive). The GI50 (COLO 205) was > 87.1 µM (inactive), the GI50 (BT-549) was 81.1 µM (inactive) and the GI50 (LOX IMVI) was 55.3 µM (inactive). The GI50 (SK-MEL-5) was 71.1 µM (inactive), the GI50 (SF-539) was > 100 µM (inactive) and the GI50 (HL-60) was 37.5 µM (inactive). For the same compound, the GI50 (RXF 393) was 27.4 µM (inactive), the GI50 (HOP-62) was 77.3 µM (inactive) and the GI50 (MDA-MB-435) was 36.6 µM (inactive). For the same compound, the GI50 (IGROV-1) was > 79.3 µM (inactive), the GI50 (CAKI-1) was > 100 µM (inactive) and the GI50 (PC-3) was > 100 µM (inactive). The GI50 (Malme-3M) was 26.9 µM (inactive), the GI50 (UACC-62) was > 88.9 µM (inactive) and the GI50 (SK-MEL-28) was > 100 µM (inactive). For the same compound, the GI50 (SF-268) was > 86.1 µM (inactive), the GI50 (U-251) was > 100 µM (inactive) and the GI50 (KM12) was 37.3 µM (inactive). The GI50 (Hs-578T) was 59.3 µM (inactive), the GI50 (HCT-15) was 47.8 µM and the GI50 (OVCAR-3) was 23.8 µM (inactive).
CCN(CC)c1nc(N(C)C)c2ccccc2n1 was tested, and the GI50 (TK-10) was 44.7 µM (inactive), the GI50 (MOLT-4) was 7.66 µM (inactive) and the GI50 (SF-295) was 33.1 µM (inactive). The GI50 (SN12C) was 20.9 µM (inactive), the GI50 (M14) was 15.6 µM (inactive) and the GI50 (T47D) was 22.9 µM (inactive). The GI50 (MDA-MB-231) was 72.4 µM (inactive), the GI50 (UO-31) was 19.3 µM (inactive) and the GI50 (OVCAR-8) was 31 µM (inactive). The GI50 (OVCAR-4) was 54.1 µM (inactive), the GI50 (SNB-75) was 34.8 µM (inactive) and the GI50 (NCI-H460) was 25.4 µM (inactive). For the same compound, the GI50 (A549) was 25.8 µM (inactive), the GI50 (HT-29) was 11.6 µM (inactive) and the GI50 (HCT-116) was 10.8 µM (inactive). The GI50 (OVCAR-5) was 25.5 µM (inactive), the GI50 (SK-OV-3) was 38.8 µM (inactive) and the GI50 (UACC-257) was 26.7 µM (inactive). For the same compound, the GI50 (SR) was 7.78 µM (inactive), the GI50 (RPMI-8226) was 13.2 µM (inactive) and the GI50 (HOP-92) was 43.3 µM (inactive). The GI50 (NCI-H23) was 23.2 µM (inactive), the GI50 (SK-MEL-2) was 30.1 µM (inactive) and the GI50 (MCF7) was 29.2 µM (inactive). For the same compound, the GI50 (NCI/ADR-RES) was 22.5 µM (inactive), the GI50 (SNB-19) was 39.9 µM (inactive) and the GI50 (K562) was 10.6 µM (inactive). For the same compound, the GI50 (786-0) was 27.9 µM (inactive), the GI50 (EKVX) was 10.3 µM (inactive) and the GI50 (MDA-N) was 16.5 µM (inactive). For the same compound, the GI50 (HCC 2998) was 15.3 µM (inactive), the GI50 (SW-620) was 32.1 µM (inactive) and the GI50 (NCI-H522) was 18.5 µM (inactive). For the same compound, the GI50 (ACHN) was 27.9 µM (inactive), the GI50 (COLO 205) was 19.4 µM (inactive) and the GI50 (BT-549) was 48.1 µM (inactive). The GI50 (LOX IMVI) was 30.1 µM (inactive), the GI50 (SK-MEL-5) was 15.1 µM (inactive) and the GI50 (SF-539) was 24.3 µM (inactive). For the same compound, the GI50 (HL-60) was 41.1 µM (inactive), the GI50 (RXF 393) was 24 µM (inactive) and the GI50 (HOP-62) was 49.3 µM (inactive). The GI50 (MDA-MB-435) was 28.9 µM (inactive), the GI50 (IGROV-1) was 37 µM (inactive) and the GI50 (CAKI-1) was 58.9 µM (inactive). For the same compound, the GI50 (PC-3) was 26.4 µM (inactive), the GI50 (Malme-3M) was 41.1 µM (inactive) and the GI50 (NCI-H226) was 15.9 µM (inactive). The GI50 (UACC-62) was 14.9 µM (inactive), the GI50 (SK-MEL-28) was 31.8 µM (inactive) and the GI50 (SF-268) was 52.2 µM (inactive). The GI50 (U-251) was 28.4 µM (inactive), the GI50 (KM12) was 31.3 µM (inactive) and the GI50 (Hs-578T) was 53.3 µM (inactive). It also gave a GI50 (HCT-15) of 33.3 µM.
